Test results as given in patent publication US12178882B2, “Alpha polyglutamated pemetrexed and uses thereof” (L.E.A.F. HOLDINGS GROUP LLC, priority 2016, dated 2024).

Tests used:
[1] = test system: AML12 liver cells; test: Toxicity to AML12 liver cells; assay type: cell-based; details: all doses studied (16-128 nM), 48 hours, FIG. 16
From the text: (§1) Methodologies used for cell line AML12 (non-cancerous liver cells) and CCD841 (non-cancerous colon epithelial cells) are similar to the methods used for cancer cells.

[2] = test system: CCD841 colon epithelium cells; test: Toxicity to CCD841 colon epithelium cells; assay type: cell-based; details: all concentrations tested (16-128 nM), 48 hours, FIG. 17
From the text: as §1

[3] = target: T1, reduced folate carriers (RFCs) (Homo sapiens, UniProt P41440); details: higher than MTX; cited from earlier work
T1 sequence (P41440 1-591): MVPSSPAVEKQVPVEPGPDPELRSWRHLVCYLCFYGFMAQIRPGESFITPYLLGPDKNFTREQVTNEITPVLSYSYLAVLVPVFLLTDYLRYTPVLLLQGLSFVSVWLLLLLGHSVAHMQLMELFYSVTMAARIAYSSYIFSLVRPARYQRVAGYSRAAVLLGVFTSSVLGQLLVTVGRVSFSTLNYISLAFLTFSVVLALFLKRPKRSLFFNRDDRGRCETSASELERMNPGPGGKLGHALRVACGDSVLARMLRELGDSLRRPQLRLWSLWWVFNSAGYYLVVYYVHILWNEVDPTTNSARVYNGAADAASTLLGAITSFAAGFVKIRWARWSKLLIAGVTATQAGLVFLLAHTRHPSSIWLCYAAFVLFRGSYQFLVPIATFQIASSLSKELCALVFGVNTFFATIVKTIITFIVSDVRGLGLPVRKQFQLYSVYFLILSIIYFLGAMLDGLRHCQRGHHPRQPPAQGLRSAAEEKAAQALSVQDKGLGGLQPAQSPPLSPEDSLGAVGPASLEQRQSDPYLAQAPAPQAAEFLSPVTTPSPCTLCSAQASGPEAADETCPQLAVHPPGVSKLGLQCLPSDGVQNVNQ

Nc1nc2[nH]cc(CCc3ccc(C(=O)N[C@@H](CCC(=O)O)C(=O)O)cc3)c2c(=O)[nH]1 [pemetrexed]
Reduction in the AML12 liver cell counts [1]: approximately 40%
Decrease in the number of CCD841 colon epithelium cells [2]: ≥ 50%
Affinity of RFCs for PMX relative to that for MTX [3]: 2 fold
